Target: T1, human zDHHC7 (Homo sapiens, UniProt Q9NXF8)
T1 construct: expressed in transfected cells; host or cells: HEK293T
T1 sequence (Q9NXF8 1-308): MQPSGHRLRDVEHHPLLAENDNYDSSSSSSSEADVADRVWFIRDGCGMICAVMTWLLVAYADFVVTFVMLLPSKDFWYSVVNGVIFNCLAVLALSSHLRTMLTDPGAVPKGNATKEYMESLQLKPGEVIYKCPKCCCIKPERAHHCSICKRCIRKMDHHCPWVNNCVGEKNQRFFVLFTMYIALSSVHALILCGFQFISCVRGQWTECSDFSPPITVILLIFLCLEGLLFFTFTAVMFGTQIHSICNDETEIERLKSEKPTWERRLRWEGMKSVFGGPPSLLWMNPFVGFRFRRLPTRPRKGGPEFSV
Test: GFP-SNAP25b S-acylation in HEK293T cells co-expressing zDHHC7
Format: cell-based
Details: in cellulo HEK293T, compound 25 μM; for inhibition at 25 µM: HEK-293T, read-out: SNAP25 S-acylation inhibition (%), zDHHC7
Method: We next investigated whether the identified compounds were effective at inhibiting zDHHC enzyme isoforms other than zDHHC2 (Fig. 6 and Table 1). […] We therefore treated cells coexpressing GFP-SNAP25 and each of these zDHHC enzymes with 25 μM of TTZ-1 and TTZ-2 and studied the subsequent effect on SNAP25 S-acylation. […] Importantly, the level of enzyme expression was unaffected by the compounds. […] As any major differences in the expression levels of the different enzymes could in theory contribute to the apparent differential effects of TTZ-1 and TTZ-2, we directly compared the expression of zDHHC2, zDHHC3, zDHHC7, zDHHC15, and zDHHC17 when transfected in HEK293T cells together with GFP-SNAP25.
Figure 6 Activity of TTZ-1 and TTZ-2 against SNAP25 S-acylation by human zDHHC2, zDHHC3, zDHHC7, zDHHC15, and zDHHC17 expressed in mammalian cells.A–E, HEK293T cells were transfected with a plasmid encoding GFP-SNAP25b together with either a control plasmid pEF-BOS-HA (pEF) or a plasmid encoding either HA-tagged human zDHHC2 (zD2) (A), zDHHC3 (zD3) (B), zDHHC7 (zD7) (C), zDHHC15 (zD15) (D), or zDHHC17 (zD17) (E) for 24 h. Cells were then preincubated for 4 h with TTZ-1 or TTZ-2 (25 μM final) or DMSO control before metabolic labeling with 100 μM C16:0-azide for 4 h. Cells were lysed, and proteins having incorporated C16:0-azide were labeled by click chemistry with an alkyne-IR800 dye. Protein samples were then resolved by SDS-PAGE and transferred to nitrocellulose membranes that were first stained with an infrared-680 total protein stain. Membranes were then destained and probed with an anti-HA antibody (IR680), followed by an anti-GFP antibody (IR680). Representative images are shown, and panels are presented in the following order (from top to bottom): click chemistry signal (Click [IR800]), GFP and HA immunoblots (IR680), and Total Protein Stain (IR680). Positions of the molecular mass markers (in kilodalton) are indicated on the right side of the membranes. Three independent experiments were performed either in duplicate or in triplicate, and the quantification data were gathered on the graphs below each set of membranes. […] Filled circles represent individual samples. […] Filled circles represent individual samples. Statistical analysis (ANOVA) was performed to test whether there was a significant difference between the zDHHC expression of cells treated with DMSO as a control versus similar samples treated with TTZ-1 or TTZ-2 (∗∗p < 0.01). F, samples from A, B, C, D, and E (expressing GFP-SNAP25 and HA-tagged zDHHC enzymes and treated with DMSO) were loaded on an SDS-PAGE gel and transferred to a nitrocellulose membrane. The membrane was probed for the expression of the HA-tagged enzymes with an anti-HA antibody (IR680). […]

CCCCCCCOc1ccc(C(=O)Nc2cccc3c2OC(c2nnn[nH]2)CN3)cc1 (stereo not shown) [TTZ-1, N-(2-(1H-Tetrazol-5-yl)-3,4-dihydro-2H-benzo[b][1,4]oxazin-8-yl)-4-(heptyloxy)benzamide]
inhibition at 25 µM: 14 ± 7% | SNAP25 S-acylation inhibition (%), zDHHC7: no significant effect

O=C(Nc1cccc2c1OC(c1nnn[nH]1)CN2)c1ccc(OCCCCc2ccccc2)cc1 (stereo not shown) [TTZ-2, N-(2-(1H-Tetrazol-5-yl)-3,4-dihydro-2H-benzo[b][1,4]oxazin-8-yl)-4-(4-phenylbutoxy)benzamide]
inhibition at 25 µM: 13 ± 7% | SNAP25 S-acylation inhibition (%), zDHHC7: no significant effect

From article PMC9558053, “Development of a novel high-throughput screen for the identification of new inhibitors of protein S-acylation” (The Journal of Biological Chemistry, 2022)
